Source: patent publication US11051515B2, “3-acyl-benzamides and their use as herbicides” (Bayer Aktiengesellschaft, priority 2017, dated 2021)

Experiments:
[1] = system: ALOMY; assay: Post-emergence action against ALOMY; type: in vivo, Alopecurus myosuroides; conditions: Dosage 80 g/ha, post-emergence
Summary of the method: (§1)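 Post-emergence foliar spray on greenhouse plants at the one-leaf stage, using wettable-powder or emulsion-concentrate formulations in water (600 to […], plus 0.2% wetting agent). Damage scored by eye roughly 3 weeks later against untreated plants: 0% = like control, 100% = dead.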

[2] = system: LOLRI; assay: Pre-emergence action against LOLRI; type: in vivo, Lolium rigidum; conditions: dosage 320 g/ha, scored visually after 3 weeks vs untreated controls
Summary of the method: (§2)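 Seeds sown in sandy loam in wood-fiber pots and covered with soil. Greenhouse growth; visual damage scored after 3 weeks versus untreated controls (100% = dead, 0% = like control).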

[3] = system: AMARE; assay: Pre-emergence action against AMARE; type: in vivo, Amaranthus retroflexus; conditions: pre-emergence, dosage 320 g/ha, scored visually after 3 weeks vs untreated controls
Summary of the method: as §2

[4] = system: SETVI; assay: Post-emergence action against SETVI; type: in vivo, Setaria viridis; conditions: post-emergence, dosage 80 g/ha, visual assessment about 3 weeks after treatment vs untreated controls
Summary of the method: as §1

[5] = system: LOLRI; assay: Post-emergence action against LOLRI; type: in vivo, Lolium rigidum; conditions: dosage 80 g/ha, visual assessment about 3 weeks after treatment vs untreated controls
Summary of the method: as §1

[6] = system: POLCO; assay: Post-emergence action against POLCO; type: in vivo, Polygonum convolvulus; conditions: post-emergence, dosage 80 g/ha
Summary of the method: as §1

[7] = system: ECHCG; assay: Pre-emergence action against ECHCG; type: in vivo, Echinochloa crus-galli; conditions: pre-emergence, dosage 320 g/ha, scored visually after 3 weeks vs untreated controls
Summary of the method: as §2

[8] = system: POLCO; assay: Pre-emergence action against POLCO; type: in vivo, Polygonum convolvulus; conditions: Dosage 320 g/ha, pre-emergence
Summary of the method: as §2

[9] = system: AVEFA; assay: Post-emergence action against AVEFA; type: in vivo, Avena fatua; conditions: post-emergence, dosage 80 g/ha, visual assessment about 3 weeks after treatment vs untreated controls
Summary of the method: as §1

[10] = system: ALOMY; assay: Pre-emergence action against ALOMY; type: in vivo, Alopecurus myosuroides; conditions: dosage 320 g/ha; pre-emergence; scored visually after 3 weeks vs untreated controls; 100% = plants have died, 0% = like control plants
Summary of the method: as §2

[11] = system: MATIN; assay: Post-emergence action against MATIN; type: in vivo, Matricaria inodora; conditions: post-emergence, dosage 80 g/ha, visual assessment about 3 weeks after treatment vs untreated controls
Summary of the method: as §1

[12] = system: ABUTH; assay: Pre-emergence action against ABUTH; type: in vivo, Abutilon theophrasti; conditions: pre-emergence, dosage 320 g/ha, scored visually after 3 weeks vs untreated controls
Summary of the method: as §2

[13] = system: PHBPU; assay: Pre-emergence action against PHBPU; type: in vivo, Pharbitis purpurea; conditions: Dosage 320 g/ha, pre-emergence
Summary of the method: as §2

[14] = system: STEME; assay: Pre-emergence action against STEME; type: in vivo, Stellaria media; conditions: Dosage 320 g/ha, pre-emergence
Summary of the method: as §2

[15] = system: AMARE; assay: Post-emergence action against AMARE; type: in vivo, Amaranthus retroflexus; conditions: post-emergence, dosage 80 g/ha, visual assessment about 3 weeks after treatment vs untreated controls
Summary of the method: as §1

[16] = system: VERPE; assay: Post-emergence action against VERPE; type: in vivo, Veronica persica; conditions: dosage 80 g/ha
Summary of the method: as §1

[17] = system: HORMU; assay: Pre-emergence action against HORMU; type: in vivo, Hordeum murinum; conditions: Dosage 320 g/ha
Summary of the method: as §2

[18] = system: SETVI; assay: Pre-emergence action against SETVI; type: in vivo, Setaria viridis; conditions: pre-emergence, dosage 320 g/ha, scored visually after 3 weeks vs untreated controls
Summary of the method: as §2

[19] = system: AVEFA; assay: Pre-emergence action against AVEFA; type: in vivo, Avena fatua; conditions: dosage 320 g/ha, scored visually after 3 weeks vs untreated controls
Summary of the method: as §2

[20] = system: CYPES; assay: Post-emergence action against CYPES; type: in vivo, Cyperus esculentus; conditions: post-emergence, dosage 80 g/ha, visual assessment about 3 weeks after treatment vs untreated controls
Summary of the method: as §1

[21] = system: MATIN; assay: Pre-emergence action against MATIN; type: in vivo, Matricaria inodora; conditions: Dosage 320 g/ha, pre-emergence
Summary of the method: as §2

[22] = system: PHBPU; assay: Post-emergence action against PHBPU; type: in vivo, Pharbitis purpurea; conditions: post-emergence, dosage 80 g/ha
Summary of the method: as §1

[23] = system: VIOTR; assay: Post-emergence action against VIOTR; type: in vivo, Viola tricolor; conditions: post-emergence, dosage 80 g/ha
Summary of the method: as §1

[24] = system: HORMU; assay: Post-emergence action against HORMU; type: in vivo, Hordeum murinum; conditions: dosage 80 g/ha
Experimental: Seeds of monocotyledonous and dicotyledonous weed and crop plants are laid out in sandy loam soil in wood-fiber pots, covered with soil and cultivated in a greenhouse under good growth conditions. 2 to 3 weeks after sowing, the test plants are treated at the one-leaf stage. The compounds of the invention, formulated in the form of wettable powders (WP) or as emulsion concentrates (EC), are then sprayed onto the green parts of the plants in the form of an aqueous suspension or emulsion at a water application rate equating to […], with addition of 0.2% wetting agent. After the test plants have been left to stand in the greenhouse under optimal growth conditions for about 3 weeks, the action of the preparations is assessed visually in comparison to untreated controls (herbicidal action in percent (%): 100% activity=the plants have died, 0% activity=like control plants). […] At the same time, inventive compounds leave Gramineae crops such as barley, wheat, rye, millet/Sorghum, corn or rice virtually undamaged when applied post-emergence, even at high active ingredient dosages. In addition, some substances are also harmless to dicotyledonous crops such as soya, cotton, oilseed rape, sugar beet or potatoes. Some of the compounds according to the invention have high selectivity and are therefore suitable for controlling unwanted vegetation in agricultural crops by the post-emergence method. The data of Tables B18 to B34 below illustrate, in an exemplary manner, the […] herbicidal action of the compounds according to the invention, the herbicidal activity being stated in percent.

[25] = system: VIOTR; assay: Pre-emergence action against VIOTR; type: in vivo, Viola tricolor; conditions: Dosage 320 g/ha, pre-emergence
Summary of the method: as §2

[26] = system: STEME; assay: Post-emergence action against STEME; type: in vivo, Stellaria media; conditions: post-emergence, dosage 80 g/ha
Summary of the method: as §1

[27] = system: ABUTH; assay: Post-emergence action against ABUTH; type: in vivo, Abutilon theophrasti; conditions: post-emergence, dosage 80 g/ha, visual assessment about 3 weeks after treatment vs untreated controls
Summary of the method: as §1

[28] = system: CYPES; assay: Pre-emergence action against CYPES; type: in vivo, Cyperus esculentus; conditions: pre-emergence, dosage 320 g/ha, scored visually after 3 weeks vs untreated controls
Summary of the method: as §2

[29] = system: ECHCG; assay: Post-emergence action against ECHCG; type: in vivo, Echinochloa crus-galli; conditions: post-emergence, dosage 80 g/ha, visual assessment about 3 weeks after treatment vs untreated controls
Summary of the method: as §1

[30] = system: VERPE; assay: Pre-emergence action against VERPE; type: in vivo, Veronica persica; conditions: Dosage 320 g/ha, pre-emergence
Summary of the method: as §2

[31] = system: DIGSA; assay: Pre-emergence action against DIGSA; type: in vivo, Digitaria sanguinalis; conditions: dosage 320 g/ha, scored visually after 3 weeks vs untreated controls
Summary of the method: as §2

[32] = system: DIGSA; assay: Post-emergence action against DIGSA; type: in vivo, Digitaria sanguinalis; conditions: dosage 80 g/ha, visual assessment about 3 weeks after treatment vs untreated controls
Summary of the method: as §1

In the case of `CCn1nnnc1NC(=O)c1ccc(C(F)(F)F)c(C(=O)C2CC2)c1SC` [2-60], the “Post-emergence action against ALOMY” value [1] is reported as 100%, the “Pre-emergence action against LOLRI (herbicidal activity)” value [2] is reported as 100% and the “Pre-emergence action against AMARE (herbicidal activity)” value [3] is reported as 100%. The “Post-emergence action against SETVI (herbicidal action in percent)” value [4] was 100%, the “Post-emergence action against LOLRI (herbicidal action in percent)” value [5] was 90% and the “Post-emergence action against POLCO” value [6] was 90. For the same compound, the “Pre-emergence action against ECHCG (herbicidal activity)” value [7] was 100%, the “Pre-emergence action against POLCO” value [8] was 100% and the “Post-emergence action against AVEFA (herbicidal action in percent)” value [9] was 80%. The “Pre-emergence action against ALOMY (herbicidal activity in percent)” value [10] was 100%, the “Post-emergence action against MATIN (herbicidal action in percent)” value [11] was 90% and the “Pre-emergence action against ABUTH (herbicidal activity)” value [12] was 100%. The “Pre-emergence action against PHBPU” value [13] was 100%, the “Pre-emergence action against STEME” value [14] was 100% and the “Post-emergence action against AMARE (herbicidal action in percent)” value [15] was 100%. The “Post-emergence action against VERPE” value [16] was 100, the “Pre-emergence action against HORMU” value [17] was 100% and the “SETVI (Table B8, pre-emergence herbicidal activity)” value [18] was 100%. The “Pre-emergence action against AVEFA (herbicidal activity)” value [19] was 100%, the “Post-emergence action against CYPES (herbicidal action in percent)” value [20] was 90% and the “Pre-emergence action against MATIN” value [21] was 100%. For the same compound, the “Post-emergence action against PHBPU” value [22] was 100, the “Post-emergence action against VIOTR” value [23] was 100 and the “Post-emergence action against HORMU” value [24] was 100. The “Pre-emergence action against VIOTR” value [25] was 100%, the “Post-emergence action against STEME” value [26] was 100 and the “Post-emergence action against ABUTH (herbicidal action in percent)” value [27] was 100%. For the same compound, the “Pre-emergence action against CYPES (herbicidal activity)” value [28] was 100%, the “Post-emergence action against ECHCG (herbicidal action in percent)” value [29] was 100% and the “Pre-emergence action against VERPE” value [30] was 100%.

For `CCn1nnnc1NC(=O)c1ccc(C(F)(F)F)c(C(=O)C2CC2)c1C1CC1` [2-233], the “Post-emergence action against ALOMY” value [1] was 90%, the “Pre-emergence action against LOLRI (herbicidal activity)” value [2] was 90% and the “Pre-emergence action against AMARE (herbicidal activity)” value [3] was 100%. The “Post-emergence action against SETVI (herbicidal action in percent)” value [4] was 90%, the “Pre-emergence action against DIGSA (herbicidal activity)” value [31] was 100% and the “Post-emergence action against POLCO” value [6] was 80. The “Pre-emergence action against ECHCG (herbicidal activity)” value [7] was 100%, the “Pre-emergence action against POLCO” value [8] was 90% and the “Post-emergence action against DIGSA (herbicidal action in percent)” value [32] was 90%. For the same compound, the “Post-emergence action against AVEFA (herbicidal action in percent)” value [9] was 90%, the “Pre-emergence action against ALOMY (herbicidal activity in percent)” value [10] was 100% and the “Post-emergence action against MATIN (herbicidal action in percent)” value [11] was 90%. The “Pre-emergence action against ABUTH (herbicidal activity)” value [12] was 100%, the “Pre-emergence action against PHBPU” value [13] was 100% and the “Pre-emergence action against STEME” value [14] was 100%. The “Post-emergence action against AMARE (herbicidal action in percent)” value [15] was 100%, the “Post-emergence action against VERPE” value [16] was 100 and the “Pre-emergence action against HORMU” value [17] was 90%. The “SETVI (Table B8, pre-emergence herbicidal activity)” value [18] was 100%, the “Pre-emergence action against AVEFA (herbicidal activity)” value [19] was 100% and the “Pre-emergence action against MATIN” value [21] was 100%. The “Post-emergence action against PHBPU” value [22] was 90, the “Post-emergence action against VIOTR” value [23] was 90 and the “Post-emergence action against HORMU” value [24] was 90. The “Pre-emergence action against VIOTR” value [25] was 100%, the “Post-emergence action against STEME” value [26] was 90 and the “Post-emergence action against ABUTH (herbicidal action in percent)” value [27] was 100%. The “Post-emergence action against ECHCG (herbicidal action in percent)” value [29] was 90% and the “Pre-emergence action against VERPE” value [30] was 100%.
